Data set [1] in a line: Antiproliferative activity against human CM-AS16 cells assessed as cell growth inhibition incubated for 72 hrs by CCK8 assay. Conditions: CM-AS16, 72 h. Format: functional, cell-based. On the technique in general: Tetrazolium assays rely on reduction of a dye to a coloured formazan, in cell work by metabolically active cells.
In the next data set the test system is CRMM-2. Description: Antiproliferative activity against human CRMM-2 cells assessed as cell growth inhibition incubated for 72 hrs by CCK8 assay. In kind it is functional, cell-based. Conditions: CRMM-2, 72 h.
A short description of data set [2]: Inhibition of homologous recombination in human CRMM-1 cells at 10 uM incubated for 12 hrs by real-time PCR analysis relative to control. Format: functional. In general terms: Quantitative PCR measures a nucleic acid by following its amplification.
A short description of data set [3]: Antiproliferative activity against human PIG1 cells assessed as cell growth inhibition incubated for 72 hrs by CCK8 assay. Format: toxicity, cell-based.
In a further data set the test system is CRMM-1. Description: Antiproliferative activity against human CRMM-1 cells assessed as cell growth inhibition incubated for 72 hrs by CCK8 assay. Format: functional, cell-based. As to conditions: CRMM-1, 72 h.
The nature of data set [4]: Antiproliferative activity against human HL7702 cells assessed as cell growth inhibition incubated for 72 hrs by CCK8 assay. Format: toxicity, cell-based. Conditions: HL7702 (L02) cells.
Data set [5] can be described thus: Antiproliferative activity against human CM2005.1 cells assessed as cell growth inhibition incubated for 72 hrs by CCK8 assay. Format: functional, cell-based. As to conditions: CM2005.1, 72 h.

Experimental findings from ChEMBL document CHEMBL5385901, “Drug repurposing of propafenone to discover novel anti-tumor agents by impairing homologous recombination to delay DNA damage recovery of rare disease conjunctival melanoma” (Eur J Med Chem, 2023) are described below.

By IC50 is commonly meant the concentration that gives 50% inhibition. The term inhibition denotes the percentage by which the read-out fell short of the control.

Some results are limits rather than exact numbers.

Turning to `CCCNCC(O)COc1ccccc1C(=O)NCc1ccccc1` (centres undefined), the half-maximal inhibitory concentration (IC50) in data set [1] is over 100 µM.
Take `CCCCCC(O)COc1ccccc1C(=O)CCc1ccccc1` (centres undefined): the IC50 in the data set with CRMM-2 amounted to 54.5 µM; in the data set with CRMM-1, 16.6 µM; in data set [1], 13.9 µM; in data set [5], 46.3 µM. The inhibition at 10 µM in data set [2] is 51.2%. The results for the IC50 at 72 h in data set [3] and in data set [4] were over 100 µM and 22.3 µM, respectively.
On to `C=CCNCCCOc1ccc2ccccc2c1C(=O)CCCc1ccccc1`, for which the IC50 is 3.1 µM in the data set with CRMM-2, 2.2 µM with CRMM-1, 3.8 µM in data set [1] and 7.6 µM in data set [5]. In data set [2], the inhibition at 10 µM worked out at 55.7%. Further, the IC50 at 72 h turned out to be 11.4 µM in data set [3] and 10.5 µM in data set [4].
As to `CCCNCC(O)COc1ccccc1C(=O)CCCc1ccccc1` (centres undefined), the IC50 in the data set with CRMM-2 stood at 28.7 µM; in the data set with CRMM-1, 25.3 µM; in data set [1], 4.9 µM; in data set [5] it was 25.2 µM. The inhibition at 10 µM in data set [2] worked out at 62.2%. In addition, the IC50 at 72 h worked out at 33.2 µM in data set [3] and 46 µM in data set [4].
In the case of `C=CC(=O)NCCCOc1ccc2ccccc2c1C(=O)CCCc1ccccc1`, the IC50 was determined as 17.2 µM with CRMM-2, 17.3 µM in the data set with CRMM-1, 18.2 µM in data set [1] and 36.9 µM in data set [5]. Besides, in data set [2], the inhibition at 10 µM worked out at 66.9%. The IC50 at 72 h in data set [3] stood at 25.7 µM; in data set [4], 70.2 µM.
`O=C(CCCc1ccccc1)c1c(OCCCN2CCC2)ccc2ccccc12`: the IC50 with CRMM-2 came out at 38.4 µM; in the data set on CRMM-1, 20.6 µM; in data set [1], 32.3 µM; in data set [5], 32.9 µM. Further, in data set [2], the inhibition at 10 µM turned out to be 17.9%. Also, the half-maximal inhibitory concentration (IC50) at 72 h in data set [3] turned out to be 42.1 µM; in data set [4], 69.6 µM.
`CCCCNCCCOc1ccccc1C(=O)CCCc1ccccc1`: the IC50 was determined as 1.1 µM in the data set on CRMM-2, 1.8 µM in the data set on CRMM-1, 4.9 µM in data set [1] and 5.4 µM in data set [5]. The inhibition at 10 µM in data set [2] came out at 38.3%. Further, the IC50 at 72 h in data set [3] amounted to 9.1 µM; in data set [4], 3.7 µM.
`CCCNCC(O)COc1cccc(C(=O)CCc2ccccc2)c1` (centres undefined): the IC50 was determined as 22.3 µM in the data set on CRMM-2, 28.3 µM with CRMM-1, 16.5 µM in data set [1] and 38 µM in data set [5]. The inhibition at 10 µM in data set [2] came to 52.5%. Also, the IC50 at 72 h in data set [3] was found to be 62.4 µM; in data set [4] it was 69.1 µM.
Take `O=C(CCCc1ccccc1)c1c(OCCCN2CCCC2)ccc2ccccc12`: the half-inhibitory concentration (IC50) in the data set with CRMM-2 came out at 8 µM; in the data set with CRMM-1, 5.6 µM; in data set [1], 11.9 µM; in data set [5], 12.8 µM. For the same molecule, the inhibition at 10 µM in data set [2] was 71%. Also, the half-inhibitory concentration (IC50) at 72 h in data set [3] came out at 7.8 µM; in data set [4], 22 µM.
Turning to `CCCNCC(O)COc1ccccc1` (centres undefined), the IC50 (with CRMM-2; in data set [1]) was over 100 µM each time.
As to `CCCNCCCOc1ccc2ccccc2c1C(=O)CCCc1ccccc1`, the IC50 came to 3.8 µM in the data set with CRMM-2, 3.1 µM in the data set with CRMM-1, 4 µM in data set [1] and 4.1 µM in data set [5]. In data set [2], the inhibition at 10 µM stood at 75.2%. Besides, the half-maximal inhibitory concentration (IC50) at 72 h amounted to 78.2 µM in data set [3] and 28.8 µM in data set [4].
As for `CCCCCCCNCCCOc1ccccc1C(=O)CCCc1ccccc1`, the IC50 amounted to 0.6 µM in the data set with CRMM-2, 1.1 µM in the data set on CRMM-1, 6.3 µM in data set [1] and 1.3 µM in data set [5]. Moreover, the inhibition at 10 µM in data set [2] is 64.8%. Also, the IC50 at 72 h in data set [3] was determined as 0.5 µM; in data set [4] it was 0.7 µM.
As to `CCCNCC(O)COc1ccccc1CCCc1ccccc1` (centres undefined), the IC50 in the data set on CRMM-2 was 20.9 µM; with CRMM-1, 9.2 µM; in data set [1], 6 µM; in data set [5], 9.6 µM. The inhibition at 10 µM in data set [2] amounted to 57%. Moreover, the IC50 at 72 h in data set [3] stood at 15.7 µM; in data set [4] it was 19.3 µM.
As to `O=C(CCCc1ccccc1)c1c(OCCCN2CCOCC2)ccc2ccccc12`, the half-inhibitory concentration (IC50) with CRMM-2 amounted to 4.2 µM; with CRMM-1, 2.3 µM; in data set [1] it was 4.2 µM; in data set [5], 1 µM. In addition, the inhibition at 10 µM in data set [2] was 83.2%. In addition, the values for the IC50 at 72 h in data set [3] and in data set [4] were 18.3 µM and 31.8 µM, respectively.
Consider `CCCNCCCOc1c(C(=O)CCCc2ccccc2)ccc2ccccc12`, for which the IC50 with CRMM-2 is 7.5 µM; in the data set on CRMM-1, 7.2 µM; in data set [1], 10.8 µM; in data set [5], 11.7 µM. In data set [2], the inhibition at 10 µM came out at 59.3%. Moreover, the half-inhibitory concentration (IC50) at 72 h in data set [3] amounted to 14.5 µM; in data set [4], 28.4 µM.
For `CC(C)(C)C(=O)NCCCOc1ccc2ccccc2c1C(=O)CCCc1ccccc1`, the IC50 with CRMM-2 turned out to be 29.6 µM; in the data set with CRMM-1, 13.1 µM; in data set [5], 35.9 µM. For the same molecule, in data set [2], the inhibition at 10 µM came to 55%. Further, the IC50 at 72 h is 14.2 µM in data set [3] and 39.9 µM in data set [4].
For `CCCCCCCNCC(O)COc1ccccc1C(=O)CCc1ccccc1` (centres undefined), the IC50 with CRMM-2 is 6.6 µM; in the data set on CRMM-1 it was 2.6 µM; in data set [1], 5.6 µM; in data set [5], 4.6 µM. The inhibition at 10 µM in data set [2] was 53.9%. Besides, the IC50 at 72 h in data set [3] was determined as 8.8 µM; in data set [4], 5.7 µM.
`CCCNCCCOc1ccccc1C(=O)CCCc1ccccc1`: the IC50 in the data set with CRMM-2 came to 3.2 µM; in the data set with CRMM-1, 2 µM; in data set [1] it was 2.1 µM; in data set [5] it was 2.6 µM. For the same molecule, the inhibition at 10 µM in data set [2] was determined as 71.6%. For the same molecule, the IC50 at 72 h in data set [3] was found to be 1.7 µM; in data set [4], 32.9 µM.
For `CCCNCC(O)COc1ccccc1C(=O)Cc1ccccc1` (centres undefined), the IC50 was 30.6 µM in the data set with CRMM-2, 45.9 µM in the data set with CRMM-1, 40.7 µM in data set [1] and 60 µM in data set [5]. In addition, the inhibition at 10 µM in data set [2] worked out at 57.9%. For the same molecule, the IC50 at 72 h in data set [3] and in data set [4] was over 100 µM throughout.
Regarding `C#CCNCCCOc1ccc2ccccc2c1C(=O)CCCc1ccccc1`, the IC50 in the data set on CRMM-2 was found to be 4 µM; in the data set on CRMM-1, 6.4 µM; in data set [1], 4.6 µM; in data set [5] it was 11.7 µM. For the same molecule, in data set [2], the inhibition at 10 µM was found to be 53.2%. In addition, the half-maximal inhibitory concentration (IC50) at 72 h worked out at 16 µM in data set [3] and 30.7 µM in data set [4].
Consider `O=C(CCCc1ccccc1)c1c(OCCCn2cccc2)ccc2ccccc12`, for which the 50% inhibitory concentration (IC50) is 50.6 µM in the data set with CRMM-2, 75.9 µM with CRMM-1 and 99.2 µM in data set [5]. Moreover, the results for the IC50 at 72 h in data set [3] and in data set [4] were 75.2 µM and 95.5 µM, respectively.
Regarding `CCCNCCCOc1cccc2cccc(C(=O)CCCc3ccccc3)c12`, the IC50 in the data set on CRMM-2 was determined as 5.9 µM; in the data set on CRMM-1 it was 9.8 µM; in data set [1] it was 8.8 µM; in data set [5], 8.4 µM. In addition, the inhibition at 10 µM in data set [2] is 59%. The IC50 at 72 h in data set [3] stood at 6.8 µM; in data set [4], 10.2 µM.
On to `Cc1cncc(COc2ccc3ccccc3c2C(=O)CCCc2ccccc2)c1`, for which the IC50 with CRMM-2 is 38.3 µM; in the data set on CRMM-1 it was 21.5 µM; in data set [5], 33 µM. In addition, the inhibition at 10 µM in data set [2] stood at 47.1%. The IC50 at 72 h was 29.1 µM in data set [3] and 95.4 µM in data set [4].
On to `O=C(CCc1ccccc1)c1ccccc1`, for which the IC50 (in the data set with CRMM-2; in the data set with CRMM-1; in data set [1]) was over 100 µM each time.
